Laboratory results reported in PMC12040169 (PLOS Biology, 2025).

Assay: in vitro
Settings: human, hela cells, % viability

## CCCC/C=C/c1cncc(NC(C)CCCC(C)(C)O)n1 (stereo not drawn) [CBK065505]
  viability at 28.5 h, 10 µM: 104%

## OCC1CCCN1c1cncc(-c2cccc3ccccc23)n1 (stereo not drawn) [CBK065509]
  viability at 28.5 h, 10 µM: 91.1%

## C[C@H](Nc1cncc(-c2cccc(CO)c2)n1)c1ccccc1 [CBK065512]
  viability at 28.5 h, 10 µM: 102%

## COc1ccc(CNc2cncc(-c3ccc(C(C)C)cc3)n2)cc1 [CBK065514]
  viability at 28.5 h, 10 µM: 119%

## COc1ccc(C(C)C)cc1-c1cncc(NC(C)CCCC(C)(C)O)n1 (stereo not drawn) [CBK065521]
  viability at 28.5 h, 10 µM: 93.3%

## COc1cc(CNc2cncc(-c3cccs3)n2)cc(OC)c1OC [CBK065526]
  viability at 28.5 h, 10 µM: 106%

## C[C@@H](Nc1cncc(-c2ccccc2CO)n1)c1ccccc1 [CBK065543]
  viability at 28.5 h, 10 µM: 106%

## COc1cc(-c2cncc(N(CCO)CCO)n2)cc(OC)c1OC [CBK065544]
  viability at 28.5 h, 10 µM: 112%

## CC(C)[C@@H](CO)Nc1cncc(-c2ccc3ccccc3c2)n1 [CBK065546]
  viability at 28.5 h, 10 µM: 100%

## COc1cc(-c2cncc(N[C@@H](C)c3ccccc3)n2)cc(OC)c1OC [CBK065551]
  viability at 28.5 h, 10 µM: 104%

## OCc1cccc(-c2cncc(Nc3ccccc3)n2)c1 [CBK065576]
  viability at 28.5 h, 10 µM: 97.4%

## CCC(CO)Nc1cncc(-c2ccc(C(N)=O)cc2)n1 (stereo not drawn) [CBK065577]
  viability at 28.5 h, 10 µM: 100%

## Nc1ccc(-c2cncc(NCc3ccccc3)n2)cc1 [CBK065578]
  viability at 28.5 h, 10 µM: 109%

## CN(C)CCN(C)c1cncc(-c2cccc(C(F)(F)F)c2)n1 [CBK065584]
  viability at 28.5 h, 10 µM: 115%

## Clc1cccc(CNc2cncc(-c3cccs3)n2)c1 [CBK065609]
  viability at 28.5 h, 10 µM: 105%

## CN(C)c1cccc(-c2cncc(NCCCO)n2)c1 [CBK065619]
  viability at 28.5 h, 10 µM: 102%

## Nc1ccc(-c2cncc(NCCc3ccccn3)n2)cc1 [CBK065632]
  viability at 28.5 h, 10 µM: 103%

## COc1cc(Nc2cncc(-c3ccc(N)cc3)n2)cc(OC)c1OC [CBK065642]
  viability at 28.5 h, 10 µM: 56.2%

## CN(C)CCN(C)c1cncc(-c2cccc(N(C)C)c2)n1 [CBK065659]
  viability at 28.5 h, 10 µM: 100%

## CCN(CC)CCN1CCN(c2cncc(-c3ccc(F)cc3F)n2)CC1 [CBK065668]
  viability at 28.5 h, 10 µM: 107%

## C[C@@H](Nc1cncc(-c2ccc(F)cc2F)n1)c1ccccc1 [CBK065676]
  viability at 28.5 h, 10 µM: 87%

## COc1ccc(N2CCN(c3cncc(-c4cccs4)n3)CC2)cc1OC [CBK065687]
  viability at 28.5 h, 10 µM: 104%

## CC(=O)Nc1ccc(-c2cncc(N(C)CCN(C)C)n2)cc1 [CBK065694]
  viability at 28.5 h, 10 µM: 97.8%

## CN(C)CCN(C)c1cncc(-c2cccc3ccccc23)n1 [CBK065709]
  viability at 28.5 h, 10 µM: 106%

## CC(=O)Nc1ccc(-c2cncc(N3CCN(CCN4CCCC4)CC3)n2)cc1 [CBK065710]
  viability at 28.5 h, 10 µM: 103%

## C[C@@H](Nc1cncc(-c2cccs2)n1)c1ccccc1 [CBK065711]
  viability at 28.5 h, 10 µM: 108%

## c1ccc(CN2CCN(c3cncc(-c4cccs4)n3)CC2)nc1 [CBK065734]
  viability at 28.5 h, 10 µM: 98.1%

## CCC(CO)Nc1cncc(-c2cc(C(C)C)ccc2OC)n1 (stereo not drawn) [CBK065743]
  viability at 28.5 h, 10 µM: 91.7%

## Fc1ccc(-c2cncc(NCCc3cccnc3)n2)cc1Cl [CBK065745]
  viability at 28.5 h, 10 µM: 91.3%

## OCCC1CCCCN1c1cncc(-c2cccs2)n1 (stereo not drawn) [CBK065758]
  viability at 28.5 h, 10 µM: 104%

## Clc1cccc(Nc2cncc(-c3cccc4ccccc34)n2)c1 [CBK065764]
  viability at 28.5 h, 10 µM: 93.4%

## OCCN(CCO)c1cncc(-c2cccs2)n1 [CBK065766]
  viability at 28.5 h, 10 µM: 95.4%

## Clc1ccc(-c2cncc(NCCc3ccncc3)n2)cc1 [CBK065787]
  viability at 28.5 h, 10 µM: 99.5%

## c1csc(-c2cncc(NCCc3ccncc3)n2)c1 [CBK065797]
  viability at 28.5 h, 10 µM: 105%

## C[C@H](Nc1cncc(-c2ccc3ccccc3c2)n1)c1ccccc1 [CBK065799]
  viability at 28.5 h, 10 µM: 108%

## O=C(O)C1CCN(c2cncc(-c3ccc4ccccc4c3)n2)CC1 [CBK065801]
  viability at 28.5 h, 10 µM: 95.5%

## C[C@H](Nc1cncc(-c2cccnc2)n1)c1ccccc1 [CBK065807]
  viability at 28.5 h, 10 µM: 96.7%

## Fc1ccc(Nc2cncc(-c3cccs3)n2)cc1Cl [CBK065813]
  viability at 28.5 h, 10 µM: 94.3%

## COc1ccc(N2CCN(c3cncc(-c4ccc(C(N)=O)cc4)n3)CC2)cc1OC [CBK065820]
  viability at 28.5 h, 10 µM: 93.8%

## COc1cc(CNc2cncc(-c3ccc(F)cc3F)n2)cc(OC)c1OC [CBK065826]
  viability at 28.5 h, 10 µM: 115%

## CCNc1cncc(-c2ccccc2)n1 [CBK065847]
  viability at 28.5 h, 10 µM: 85.5%

## OCCNc1cncc(-c2ccccc2)n1 [CBK065857]
  viability at 28.5 h, 10 µM: 92%

## CN1CCCN(c2cncc(-c3ccc(F)cc3F)n2)CC1 [CBK065858]
  viability at 28.5 h, 10 µM: 97.9%

## CCOc1ccc(-c2cncc(N3CCN(C(=O)c4ccco4)CC3)n2)cc1 [CBK065860]
  viability at 28.5 h, 10 µM: 109%

## CCOc1ccc(-c2cncc(N3CCC(C(=O)O)CC3)n2)cc1 [CBK065870]
  viability at 28.5 h, 10 µM: 97.2%

## CCOc1ccc(-c2cncc(NC3CCC(O)CC3)n2)cc1 (stereo not drawn) [CBK065877]
  viability at 28.5 h, 10 µM: 88.9%

## CC(C)[C@H](CO)Nc1cncc(-c2ccc(F)cc2F)n1 [CBK065883]
  viability at 28.5 h, 10 µM: 92.3%

## CC(=O)Nc1ccc(-c2cncc(NC3CCC(O)CC3)n2)cc1 (stereo not drawn) [CBK065886]
  viability at 28.5 h, 10 µM: 93.9%

## CC(=O)Nc1ccc(-c2cncc(NC(C)CCCC(C)(C)O)n2)cc1 (stereo not drawn) [CBK065894]
  viability at 28.5 h, 10 µM: 91.1%

## OCC1CCCN1c1cncc(-c2ccc3c(c2)OCO3)n1 (stereo not drawn) [CBK065908]
  viability at 28.5 h, 10 µM: 100%

## Cc1ccc(-c2cncc(N3CCN(CCO)CC3)n2)cc1C [CBK065912]
  viability at 28.5 h, 10 µM: 102%

## FC(F)(F)Oc1cccc(-c2cncc(NCc3ccncc3)n2)c1 [CBK065926]
  viability at 28.5 h, 10 µM: 104%

## OCCN1CCN(c2cncc(-c3cccc(OC(F)(F)F)c3)n2)CC1 [CBK065941]
  viability at 28.5 h, 10 µM: 108%

## Cc1ccc(-c2cncc(N3CCCC3CO)n2)cc1C (stereo not drawn) [CBK065945]
  viability at 28.5 h, 10 µM: 89.1%

## CN1CCCN(c2cncc(-c3cccc(OC(F)(F)F)c3)n2)CC1 [CBK065949]
  viability at 28.5 h, 10 µM: 102%

## C[C@H](Nc1cncc(-c2ccc3c(c2)OCO3)n1)c1ccccc1 [CBK065962]
  viability at 28.5 h, 10 µM: 90.3%

## Cc1ccc(-c2cncc(NCc3cccs3)n2)cc1C [CBK065967]
  viability at 28.5 h, 10 µM: 106%

## CCC(CO)Nc1cncc(-c2ccc3c(c2)OCO3)n1 (stereo not drawn) [CBK065970]
  viability at 28.5 h, 10 µM: 98.4%

## CCOc1cccc(-c2cncc(N3CCN(c4ccccn4)CC3)n2)c1 [CBK065985]
  viability at 28.5 h, 10 µM: 91.5%

## Cc1ccc(-c2cncc(N(C)CCN(C)C)n2)cc1C [CBK065990]
  viability at 28.5 h, 10 µM: 112%

## CCOc1cccc(-c2cncc(N3CCCC3CO)n2)c1 (stereo not drawn) [CBK066004]
  viability at 28.5 h, 10 µM: 89.7%

## C[C@H](Nc1cncc(-c2cccc(C(=O)NCCO)c2)n1)c1ccccc1 [CBK066007]
  viability at 28.5 h, 10 µM: 108%

## COc1ncc(-c2cncc(Nc3cccc(C#N)c3)n2)c(OC)n1 [CBK066022]
  viability at 28.5 h, 10 µM: 89.7%

## N#Cc1cccc(Nc2cncc(-c3cccs3)n2)c1 [CBK066030]
  viability at 28.5 h, 10 µM: 95.4%

## CCOc1cccc(-c2cncc(NCc3cccs3)n2)c1 [CBK066034]
  viability at 28.5 h, 10 µM: 104%

## CC(C)[C@@H](CO)Nc1cncc(-c2ccc(O)cc2)n1 [CBK066038]
  viability at 28.5 h, 10 µM: 97.8%

## c1ccc2oc(-c3cncc(NCCCN4CCOCC4)n3)cc2c1 [CBK066045]
  viability at 28.5 h, 10 µM: 92.9%

## CC(=O)Nc1ccc(-c2cncc(N3CCN(C(=O)c4ccco4)CC3)n2)cc1 [CBK066065]
  viability at 28.5 h, 10 µM: 99.3%

## COc1ccc(N2CCN(c3cncc(-c4cccnc4)n3)CC2)cc1OC [CBK066086]
  viability at 28.5 h, 10 µM: 90.5%

## COc1ccc(-c2cncc(N3CCN(c4cccc5[nH]ccc45)CC3)n2)cc1 [CBK066087]
  viability at 28.5 h, 10 µM: 97.2%

## CCCC/C=C/c1cncc(N2CCN(Cc3ccccn3)CC2)n1 [CBK066096]
  viability at 28.5 h, 10 µM: 93.4%

## CCN(CC)CCN1CCN(c2cncc(-c3cccc(/C=C/C(=O)O)c3)n2)CC1 [CBK066097]
  viability at 28.5 h, 10 µM: 96.6%

## Clc1cccc(-c2cncc(N3CCN(c4ccncc4)CC3)n2)c1 [CBK066099]
  viability at 28.5 h, 10 µM: 95.4%

## c1ccc(N2CCN(c3cncc(-c4ccc5ccccc5c4)n3)CC2)nc1 [CBK066104]
  viability at 28.5 h, 10 µM: 100%

## COc1ccc(N2CCN(c3cncc(-c4cccc(N)c4)n3)CC2)cc1OC [CBK066126]
  viability at 28.5 h, 10 µM: 94.3%

## COCCNc1nc(-c2ccc3ccccc3c2)cn2ccnc12 [CBK066138]
  viability at 28.5 h, 10 µM: 103%

## FC(F)(F)c1cc(-c2cn3ccnc3c(NCCc3cccnc3)n2)cc(C(F)(F)F)c1 [CBK066146]
  viability at 28.5 h, 10 µM: 98.1%

## CC(C)[C@H](CO)Nc1nc(-c2ccc(N3CCOCC3)cc2)cn2ccnc12 [CBK066151]
  viability at 28.5 h, 10 µM: 108%

## COc1cccc(OC)c1-c1cn2ccnc2c(NCCc2ccccn2)n1 [CBK066173]
  viability at 28.5 h, 10 µM: 109%

## COc1cc(-c2cn3ccnc3c(NC3CC3)n2)cc(OC)c1OC [CBK066184]
  viability at 28.5 h, 10 µM: 90%

## CCCC/C=C/c1cn2ccnc2c(Nc2cccc(OCC(=O)N(C)C)c2)n1 [CBK066185]
  viability at 28.5 h, 10 µM: 108%

## COc1cc(-c2cn3ccnc3c(N(C)CCN(C)C)n2)cc(OC)c1OC [CBK066196]
  viability at 28.5 h, 10 µM: 100%

## CCCC/C=C/c1cn2ccnc2c(N2CCN(c3ccccn3)CC2)n1 [CBK066224]
  viability at 28.5 h, 10 µM: 94%

## COc1ccc(-c2cn3ccnc3c(N3CCCCC3CO)n2)cc1OC (stereo not drawn) [CBK066230]
  viability at 28.5 h, 10 µM: 107%

## CCCC/C=C/c1cn2ccnc2c(NCCc2cccnc2)n1 [CBK066235]
  viability at 28.5 h, 10 µM: 105%

## CCN(CCO)c1ccc(Nc2nc(-c3cccc4ccccc34)cn3ccnc23)cc1 [CBK066243]
  viability at 28.5 h, 10 µM: 87.9%

## Clc1cccc(Nc2nc(Br)cn3ccnc23)c1 [CBK066260]
  viability at 28.5 h, 10 µM: 80.6%

## COc1ccc(-c2cn3ccnc3c(Nc3ccc(N4CCOCC4)cc3)n2)cc1 [CBK066265]
  viability at 28.5 h, 10 µM: 98.5%

## O=C(O)/C=C/c1cccc(-c2cn3ccnc3c(NCc3cccnc3)n2)c1 [CBK066283]
  viability at 28.5 h, 10 µM: 98.8%

## Brc1cccc(-c2cn3ccnc3c(NC3CCOCC3)n2)c1 [CBK066291]
  viability at 28.5 h, 10 µM: 101%

## O=C(O)/C=C/c1cccc(-c2cn3ccnc3c(N3CCN(c4ccncc4)CC3)n2)c1 [CBK066326]
  viability at 28.5 h, 10 µM: 94.8%

## CCCC/C=C/c1cn2ccnc2c(NCc2cc(OC)c(OC)c(OC)c2)n1 [CBK066331]
  viability at 28.5 h, 10 µM: 93.1%

## CN1CCN(c2nc(-c3ccccc3CO)cn3ccnc23)CC1 [CBK066347]
  viability at 28.5 h, 10 µM: 87.1%
